Experimental findings from patent US20250302832A1, “PYRAZINE DERIVATIVES AND USES THEREOF” (FOGHORN THERAPEUTICS INC., priority 2022, published 2025) are described below.

One assay has as its target T1, HiBit-BRM fusion protein (Homo sapiens, UniProt P51531).
T1 construct: expressed in transfected cells
Put plainly: HiBiT-BRM cell-based degradation assay (Nano-Glo HiBiT lytic detection, 24 h). The conditions noted are these: HeLa cell line expressing HiBiT-BRM; for DC50: read-out: BRM HiBit Degradation IC50. Here is the method:
(§1) Procedure: A stable HeLa cell line expressing HiBiT-BRM was generated. On day 0, 5000 cells were seeded in 40 μL of media into each well of 384-well cell culture plates. On day 1, cells were treated with 120 nL DMSO or 120 nL of 3-fold serially DMSO-diluted compounds (10 points in duplicate with 30 μM as final top dose). Subsequently plates were incubated for 24 h in a standard tissue culture incubator and equilibrated at room temperature for 15 minutes. Nano-GB HiBiT Lytic Detection System (Promega N3050) reagent was freshly prepared and 20 ul was added to each well. Upon addition of this LgBit-containing reagent, the HiBiT and LgBiT proteins associate to form the luminescent NanoBiT luciferase. The plates were shaken for 10 minutes at room temperature and the bioluminescence read using an EnVision plate reader (PerkinElmer).
(§2) The degradation % was calculated using the following formula: % degradation=100%−100%×(Lumsample−LuMLC)/(LuMHC−LuMLC). DMSO treated cells are employed as High Control (HC) and 2 μM of a known BRM/BRG1 degrader standard treated cells are employed as Low Control (LC).

Assay [1] has as its target T2, HiBit-BRG1 fusion protein (Homo sapiens, UniProt P51532).
T2 construct: expressed in transfected cells
Put plainly: HiBiT-BRG1 cell-based degradation assay (Nano-Glo HiBiT lytic detection, 24 h). The conditions noted are these: HeLa cell line expressing HiBit-BRG1 and LgBit; for Dmax: read-out: BRG1 HiBit Degradation Maximum (%); for DC50: read-out: BRMG1 HiBit Degradation IC50. Here is the method:
as §1, with “On day 1, cells were treated with 120 nL DMSO or 120 nL of 3-fold serially DMSO-diluted compounds (10 points in duplicate with 30 μM as final top dose).” left out
For measurement of BRG1 degradation, a stable HeLa cell line expressing HiBit-BRG1 and LgBit was generated. The same protocol as above was then followed.
as §2
A general note: With HiBiT, luminescence reflects the tagged protein that the partner subunit can reach.

Where only a bound is given, the exact number is not on record here.

T2 sequence (P51532 whole entry, the tested form may be a part): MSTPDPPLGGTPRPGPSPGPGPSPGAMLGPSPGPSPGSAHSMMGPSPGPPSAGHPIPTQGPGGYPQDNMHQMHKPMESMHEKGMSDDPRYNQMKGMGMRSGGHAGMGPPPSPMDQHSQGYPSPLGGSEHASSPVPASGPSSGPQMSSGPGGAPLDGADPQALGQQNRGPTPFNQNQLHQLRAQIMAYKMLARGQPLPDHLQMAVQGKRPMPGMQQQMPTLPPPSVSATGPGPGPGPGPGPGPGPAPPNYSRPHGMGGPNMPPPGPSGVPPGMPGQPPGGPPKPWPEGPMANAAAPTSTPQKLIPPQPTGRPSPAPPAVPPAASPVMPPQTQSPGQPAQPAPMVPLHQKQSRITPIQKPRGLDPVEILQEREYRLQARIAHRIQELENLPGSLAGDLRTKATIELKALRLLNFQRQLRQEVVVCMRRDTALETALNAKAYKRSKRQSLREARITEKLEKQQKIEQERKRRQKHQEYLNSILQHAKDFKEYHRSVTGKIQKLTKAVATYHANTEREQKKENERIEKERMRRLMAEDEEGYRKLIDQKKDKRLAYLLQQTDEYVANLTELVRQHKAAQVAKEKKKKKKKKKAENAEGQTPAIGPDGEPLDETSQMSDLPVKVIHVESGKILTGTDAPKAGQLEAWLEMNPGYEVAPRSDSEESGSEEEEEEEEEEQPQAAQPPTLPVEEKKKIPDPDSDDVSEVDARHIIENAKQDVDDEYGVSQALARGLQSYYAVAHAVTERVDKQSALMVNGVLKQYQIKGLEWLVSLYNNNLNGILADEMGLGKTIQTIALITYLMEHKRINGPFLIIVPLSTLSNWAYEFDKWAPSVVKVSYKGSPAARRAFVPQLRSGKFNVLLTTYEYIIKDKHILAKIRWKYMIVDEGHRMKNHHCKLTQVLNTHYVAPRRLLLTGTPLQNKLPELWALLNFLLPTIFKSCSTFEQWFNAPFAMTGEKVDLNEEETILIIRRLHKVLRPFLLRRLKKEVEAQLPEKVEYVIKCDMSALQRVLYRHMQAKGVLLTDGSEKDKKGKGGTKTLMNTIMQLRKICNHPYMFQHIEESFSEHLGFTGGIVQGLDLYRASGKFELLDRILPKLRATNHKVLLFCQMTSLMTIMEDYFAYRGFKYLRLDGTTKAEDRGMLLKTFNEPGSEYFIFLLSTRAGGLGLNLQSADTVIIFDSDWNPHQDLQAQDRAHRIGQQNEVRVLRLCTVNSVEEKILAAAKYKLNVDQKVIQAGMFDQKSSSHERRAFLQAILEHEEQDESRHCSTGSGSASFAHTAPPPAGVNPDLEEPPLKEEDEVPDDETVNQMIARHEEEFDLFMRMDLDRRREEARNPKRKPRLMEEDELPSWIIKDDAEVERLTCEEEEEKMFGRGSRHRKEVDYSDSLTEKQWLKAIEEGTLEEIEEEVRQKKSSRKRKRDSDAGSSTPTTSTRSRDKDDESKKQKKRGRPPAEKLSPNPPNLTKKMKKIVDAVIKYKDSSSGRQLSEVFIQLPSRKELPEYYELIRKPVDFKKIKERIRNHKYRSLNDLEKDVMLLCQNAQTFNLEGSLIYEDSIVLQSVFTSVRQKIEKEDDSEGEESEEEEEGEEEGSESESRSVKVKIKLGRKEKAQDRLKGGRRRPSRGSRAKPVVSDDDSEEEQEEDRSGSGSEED
T1 sequence (P51531 whole entry, the tested form may be a part): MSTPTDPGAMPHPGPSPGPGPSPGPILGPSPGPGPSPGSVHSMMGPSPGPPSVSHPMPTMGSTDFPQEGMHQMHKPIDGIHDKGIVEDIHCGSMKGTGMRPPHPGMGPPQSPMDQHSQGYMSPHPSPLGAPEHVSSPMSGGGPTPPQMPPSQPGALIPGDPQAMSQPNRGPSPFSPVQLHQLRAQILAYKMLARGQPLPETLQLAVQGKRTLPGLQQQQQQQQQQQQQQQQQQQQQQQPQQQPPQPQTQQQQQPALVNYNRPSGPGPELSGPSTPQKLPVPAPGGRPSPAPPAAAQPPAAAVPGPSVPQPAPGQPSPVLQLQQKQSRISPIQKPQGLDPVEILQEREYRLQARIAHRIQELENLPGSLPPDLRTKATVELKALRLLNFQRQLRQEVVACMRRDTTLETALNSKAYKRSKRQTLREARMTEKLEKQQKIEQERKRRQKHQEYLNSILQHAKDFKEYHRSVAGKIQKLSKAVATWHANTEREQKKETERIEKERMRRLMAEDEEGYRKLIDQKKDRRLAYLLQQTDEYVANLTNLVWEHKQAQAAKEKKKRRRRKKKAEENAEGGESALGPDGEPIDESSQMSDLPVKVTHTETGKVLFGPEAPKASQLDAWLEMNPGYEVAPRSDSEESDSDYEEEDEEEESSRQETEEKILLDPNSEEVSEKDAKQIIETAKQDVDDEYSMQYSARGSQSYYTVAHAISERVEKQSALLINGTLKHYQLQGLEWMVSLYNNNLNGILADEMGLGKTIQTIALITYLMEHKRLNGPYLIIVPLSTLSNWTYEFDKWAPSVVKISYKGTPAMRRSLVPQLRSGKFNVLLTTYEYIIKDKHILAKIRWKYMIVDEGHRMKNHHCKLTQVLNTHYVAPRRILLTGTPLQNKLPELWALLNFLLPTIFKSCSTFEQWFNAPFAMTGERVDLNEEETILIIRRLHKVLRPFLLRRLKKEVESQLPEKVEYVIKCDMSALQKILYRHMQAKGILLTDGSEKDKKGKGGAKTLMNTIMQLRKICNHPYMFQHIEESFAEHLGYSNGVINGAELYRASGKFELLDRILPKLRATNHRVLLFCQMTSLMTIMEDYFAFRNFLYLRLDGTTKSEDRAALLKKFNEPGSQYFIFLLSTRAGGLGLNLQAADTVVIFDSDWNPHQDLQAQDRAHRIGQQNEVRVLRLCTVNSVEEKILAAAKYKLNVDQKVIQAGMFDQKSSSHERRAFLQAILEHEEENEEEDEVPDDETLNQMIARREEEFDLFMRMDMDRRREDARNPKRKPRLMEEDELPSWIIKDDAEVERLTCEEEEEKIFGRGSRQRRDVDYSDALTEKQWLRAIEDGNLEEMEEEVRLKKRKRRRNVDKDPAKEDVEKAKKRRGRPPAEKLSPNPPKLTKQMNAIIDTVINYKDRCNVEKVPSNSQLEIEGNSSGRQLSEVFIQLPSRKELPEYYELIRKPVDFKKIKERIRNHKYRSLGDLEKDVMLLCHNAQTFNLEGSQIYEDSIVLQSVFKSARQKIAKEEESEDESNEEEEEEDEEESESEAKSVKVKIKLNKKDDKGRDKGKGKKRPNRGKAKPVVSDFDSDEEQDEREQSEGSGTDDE

For the compound `Cc1ncsc1-c1ccc([C@H](C)NC(=O)[C@@H]2C[C@@H](O)CN2C(=O)[C@@H](c2cc(N3CCC(N4CC(c5cc6nnc(-c7ccccc7O)cc6n5C)C4)CC3)no2)C(C)C)cc1` [Compound 12, (2S,4R)-4-hydroxy-1-((R)-2-(3-(4-(3-(3-(2-hydroxyphenyl)-5-methyl-5H-pyrrolo[3,2-c]pyridazin-6-yl)azetidin-1-yl)piperidin-1-yl)isoxazol-5-yl)-3-methylbutanoyl)-N-((S)-1-(4-(4-methylthiazol-5-yl)phenyl)ethyl)pyrrolidine-2-carboxamide], on HiBit-BRM fusion protein, the “BRM HiBit Degradation Maximum (%)” value is recorded as “A (“A” indicates maximum degradation ≥75%)” and the DC50 is less than 10 nM. For the same compound, in assay [1], the Dmax is more than 75% and the DC50 is more than 10 nM.

In the case of `Cc1ncsc1-c1ccc([C@H](C)NC(=O)[C@@H]2C[C@@H](O)CN2C(=O)[C@@H](c2cc(N3CCC(C(=O)N4CC(c5cc6nnc(-c7ccccc7O)cc6n5C)C4)CC3)no2)C(C)C)cc1` [Compound 13, (2S,4R)-4-hydroxy-1-[(2R)-2-[3-(4-{3-[3-(2-hydroxyphenyl)-5-methylpyrrolo[3,2-c]pyridazin-6-yl]azetidine-1-carbonyl}piperidin-1-yl)-1,2-oxazol-5-yl]-3-methylbutanoyl]-N-[(1S)-1-[4-(4-methyl-1,3-thiazol-5-yl)phenyl]ethyl]pyrrolidine-2-carboxamide], at HiBit-BRM fusion protein, the “BRM HiBit Degradation Maximum (%)” value is reported as “A (“A” indicates maximum degradation ≥75%)” and the DC50 was less than 10 nM. Moreover, in assay [1], the Dmax was more than 50% and the DC50 was more than 100 nM.

Consider `Cc1ncsc1-c1ccc([C@H](C)NC(=O)[C@@H]2C[C@@H](O)CN2C(=O)[C@@H](c2cc(OCCN3CC(c4cc5nnc(-c6ccccc6O)cc5n4C(F)F)C3)no2)C(C)C)cc1` [Compound 14, (2S,4R)-1-((R)-2-(3-(2-(3-(5-(difluoromethyl)-3-(2-hydroxyphenyl)-5H-pyrrolo[3,2-c]pyridazin-6-yl)azetidin-1-yl)ethoxy)isoxazol-5-yl)-3-methylbutanoyl)-4-hydroxy-N—((S)-1-(4-(4-methylthiazol-5-yl)phenyl)ethyl)pyrrolidine-2-carboxamide], for which, on HiBit-BRM fusion protein, the “BRM HiBit Degradation Maximum (%)” value is given as “A (“A” indicates maximum degradation ≥75%)” and the DC50 was more than 10 nM. In addition, in assay [1], the Dmax is more than 50% and the DC50 is more than 10 nM.

Regarding `Cc1ncsc1-c1ccc([C@H](C)NC(=O)[C@@H]2C[C@@H](O)CN2C(=O)[C@@H](c2cc(OCC(=O)N3CC(c4cc5nnc(-c6ccccc6O)cc5n4C)C3)no2)C(C)C)cc1` [Compound 15, (2S,4R)-4-hydroxy-1-((R)-2-(3-(2-(3-(3-(2-hydroxyphenyl)-5-methyl-5H-pyrrolo[3,2-c]pyridazin-6-yl)azetidin-1-yl)-2-oxoethoxy)isoxazol-5-yl)-3-methylbutanoyl)-N-((S)-1-(4-(4-methylthiazol-5-yl)phenyl)ethyl)pyrrolidine-2-carboxamide], at HiBit-BRM fusion protein, the “BRM HiBit Degradation Maximum (%)” value is “A (“A” indicates maximum degradation ≥75%)” and the DC50 is more than 100 nM. Further, in assay [1], the Dmax was less than 50%.

For `Cc1ncsc1-c1ccc([C@H](C)NC(=O)[C@@H]2C[C@@H](O)CN2C(=O)[C@@H](c2cc(OCCN3CC(c4cc5nnc(-c6ccccc6O)cc5n4C4COC4)C3)no2)C(C)C)cc1` [Compound 16, (2S,4R)-4-hydroxy-1-((R)-2-(3-(2-(3-(3-(2-hydroxyphenyl)-5-(oxetan-3-yl)-5H-pyrrolo[3,2-c]pyridazin-6-yl)azetidin-1-yl)ethoxy)isoxazol-5-yl)-3-methylbutanoyl)-N—((S)-1-(4-(4-methylthiazol-5-yl)phenyl)ethyl)pyrrolidine-2-carboxamide], the “BRM HiBit Degradation Maximum (%)” value on HiBit-BRM fusion protein is “C (“C” indicates maximum degradation <50%)”. The Dmax in assay [1] was less than 50%.

On to `Cc1ncsc1-c1ccc([C@H](C)NC(=O)[C@@H]2C[C@@H](O)CN2C(=O)[C@@H](c2cc(OCCN3CCC(c4cc5nnc(-c6ccccc6O)cc5[nH]4)CC3)no2)C(C)C)cc1` [Compound 17, (2S,4R)-4-hydroxy-1-[(2R)-2-[3-(2-{4-[3-(2-hydroxyphenyl)-5H-pyrrolo[3,2-c]pyridazin-6-yl]piperidin-1-yl}ethoxy)-1,2-oxazol-5-yl]-3-methylbutanoyl]-N-[(1S)-1-[4-(4-methyl-1,3-thiazol-5-yl)phenyl]ethyl]pyrrolidine-2-carboxamide], for which, on HiBit-BRM fusion protein, the “BRM HiBit Degradation Maximum (%)” value is “A (“A” indicates maximum degradation ≥75%)” and the DC50 is less than 10 nM. Further, in assay [1], the Dmax is more than 75% and the DC50 was more than 10 nM.

`Cc1ncsc1-c1ccc([C@H](C)NC(=O)[C@@H]2C[C@@H](O)CN2C(=O)[C@H](c2cc(-c3cnc(N4CCC(c5cc6nnc(-c7ccccc7O)cc6[nH]5)CC4)nc3)no2)C(C)C)cc1` [Compound 19, (2S,4R)-4-hydroxy-1-[(2S)-2-[3-(2-{4-[3-(2-hydroxyphenyl)-5H-pyrrolo[3,2-c]pyridazin-6-yl]piperidin-1-yl}pyrimidin-5-yl)-1,2-oxazol-5-yl]-3-methylbutanoyl]-N-[(1S)-1-[4-(4-methyl-1,3-thiazol-5-yl)phenyl]ethyl]pyrrolidine-2-carboxamide]: on HiBit-BRM fusion protein, the “BRM HiBit Degradation Maximum (%)” value was “B (“B” indicates maximum degradation ≥50%)” and the DC50 is more than 10 nM. The Dmax in assay [1] is less than 50%.

Regarding `Cc1ncsc1-c1ccc([C@H](C)NC(=O)[C@@H]2C[C@@H](O)CN2C(=O)[C@@H](c2cc(OCCN3CCC(c4cc5nnc(-c6ccccc6O)cc5n4C)CC3)no2)C(C)C)cc1` [Compound 20, (2S,4R)-4-hydroxy-1-[(2R)-2-[3-(2-{4-[3-(2-hydroxyphenyl)-5-methylpyrrolo[3,2-c]pyridazin-6-yl]piperidin-1-yl}ethoxy)-1,2-oxazol-5-yl]-3-methylbutanoyl]-N-[(1S)-1-[4-(4-methyl-1,3-thiazol-5-yl)phenyl]ethyl]pyrrolidine-2-carboxamide], at HiBit-BRM fusion protein, the “BRM HiBit Degradation Maximum (%)” value is given as “A (“A” indicates maximum degradation ≥75%)” and the DC50 was less than 10 nM. For the same compound, in assay [1], the Dmax was more than 75% and the DC50 is less than 10 nM.

On to `Cc1ncsc1-c1ccc([C@H](C)NC(=O)[C@@H]2C[C@@H](O)CN2C(=O)[C@@H](c2cc(-c3cnc(N4CCC(c5cc6nnc(-c7ccccc7O)cc6n5C)CC4)nc3)no2)C(C)C)cc1` [Compound 21, (2S,4R)-4-hydroxy-1-((R)-2-(3-(2-(4-(3-(2-hydroxyphenyl)-5-methyl-5H-pyrrolo[3,2-c]pyridazin-6-yl)piperidin-1-yl)pyrimidin-5-yl)isoxazol-5-yl)-3-methylbutanoyl)-N—((S)-1-(4-(4-methylthiazol-5-yl)phenyl)ethyl) pyrrolidine-2-carboxamide], for which, on HiBit-BRM fusion protein, the “BRM HiBit Degradation Maximum (%)” value was “A (“A” indicates maximum degradation ≥75%)” and the DC50 is less than 10 nM. Moreover, in assay [1], the Dmax was more than 50% and the DC50 is less than 10 nM.
